{"source": "patent US20240261302A1", "about": "“METHODS OF TREATING NEURODEGENERATIVE DISEASES OR CONDITIONS” (FloraScience Inc., priority 2023, published 2024)", "key": {"[1]": {"tested_on": "HT22 cells", "test": "Total GSH Measurements", "assay_type": "cell-based, mouse", "details": "5 μM", "method": "Total GSH Measurements. HT22 cells were seeded onto 35 mm dishes at a density of 70,000 cells/dish in DMEM supplemented with 10% FBS and 1% antibiotics. After the desired treatments, the cells were scraped into ice-cold PBS and the cell pellets collected by centrifugation (500 g). The pellets were resuspended in PBS and 10% sulfosalicylic acid was added at a final concentration of 3.3% to the cells. Proteins were pelleted by centrifugation and the supernatant neutralized. Total GSH was determined by the recycling assay based on the reduction of 5,5-dithiobis(2-nitrobenzoic acid) with glutathione reductase and NADPH and normalized to protein recovered from the acid-precipitated pellet by treatment with 0.2 N NaOH at 37° C. overnight and measured by the BCA protein assay (Pierce, Rockford, IL, USA). Samples were analyzed in four dishes per independent experiment (n=4)."}, "[2]": {"tested_on": "HT22 cells", "test": "Ferroptosis Assay (RSL3-induced cell death, MTT)", "assay_type": "cell-based, mouse", "details": "for EC50: Mus musculus, HT-22, MTT", "summary_of_the_method": "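HT22 cells pretreated 1 hr with compound, then coincubated with 50 nM RSL3 for 16 hr. Viability by MTT absorbance at 570 nm, expressed as percent of vehicle control.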"}, "[3]": {"tested_on": "HT22 cells", "test": "Immunoblotting (Western blots) of protein levels", "assay_type": "cell-based, mouse", "method": "Cell Protein Extraction. HT22 cells were seeded onto 10 cm dishes at a density of 400,000 cells/dish in DMEM supplemented with 10% FBS and 1% antibiotics, and then exposed to the desired treatments. For total protein extracts, HT22 cells were washed with ice-cold phosphate buffered saline (PBS) and lysed with cell extraction buffer containing 10 mM Tris, pH 7.4, 100 mM NaCl, 1 mM EDTA, 1 mM EGTA, 1 mM NaF, 20 mM Na4P2O7, 2 mM Na3VO4, 1% Triton X-100, 10% glycerol, 0.1% sodium dodecyl sulfate (SDS), 0.5% sodium deoxycholate, a protease inhibitor cocktail, and a phosphatase inhibitor cocktail followed by centrifugation (14000 g) for 30 min at 4° C. For nuclear extracts, HT22 cells were washed with ice-cold PBS, incubated with a nuclear fractionation buffer containing 10 mM HEPES, pH 7.9, 10 mM KCl, 0.1 mM EDTA, 0.1 mM EGTA, 1 mM DTT, 1 mM Na3VO4, a protease inhibitor cocktail, and a phosphatase inhibitor cocktail on ice for 15 min, then Nonidet P-40 at a final concentration of 0.6% was added to the buffer. Cells were vortexed, and the nuclei pelleted by centrifugation (1000 g) for 10 min at 4° C. Nuclear proteins were extracted by sonication of the nuclear pellet in nuclear fractionation buffer followed by centrifugation (14000 g) for 30 min at 4° C. The resulting supernatants of total/nuclear protein extracts were stored at −80° C. until analysis. Concentrations of the harvested proteins were determined by the BCA protein assay.\nImmunoblotting. Western blots were carried out as follows. Laemmli sample buffer with 2% β-mercaptoethanol was added to the samples and then boiled for 5 min prior to SDS-PAGE. Equal amounts of cellular protein for each sample (10 μg per lane) were resolved by 4-12% gradient Criterion XT Precast Bis-Tris Gels (Bio-Rad, Hercules, CA) and transferred onto PVDF membranes with a Trans-Blot Turbo System (Bio-Rad, Hercules, CA). The membranes were blocked with 5% skim milk in TBST (20 mM Tris buffer, pH 7.5, 0.5 M NaCl, 0.1% Tween 20) for 1 hr at room temperature and incubated overnight at 4° C. with the diluted primary antibody in 5% BSA in TBST. After washes with TBST, the membranes were incubated with horseradish peroxidase-conjugated goat anti-rabbit or anti-mouse secondary antibodies (Bio-Rad, Hercules, CA) diluted 1:5000 in 5% skim milk in TBST. For all primary antibodies, the same membrane was re-probed for β-actin or an antiserum reacting with the total protein. After additional washing, protein bands were detected using the SuperSignal West Pico PLUS Chemiluminescent Substrate, and visualized with a ChemiDoc MP Imaging System (Bio-Rad, Hercules, CA). Band density was quantified densitometrically with Image Lab software (Bio-Rad, Hercules, CA). Relative protein expression was normalized to ß-actin band density. Each Western blot was performed three to six times with independent protein samples (n=3−6)."}, "[4]": {"details": "cited from earlier work"}, "[5]": {"tested_on": "HT22 cells", "test": "Cytotoxicity assessment of CBN in HT22 cells", "assay_type": "cell-based, mouse", "method": "FIGS. 2A-2I show CBN inhibits oxytosis/ferroptosis in HT22 cells. Representative micrographs of HT22 cells following treatment for 16 h: (FIG. 2A) 0.2% ethanol treatment as vehicle control, (FIG. 2B) 5 μM CBN treatment, (FIG. 2C) 5 mM glutamate treatment, (FIG. 2D) 50 nM RSL3 treatment, (FIG. 2E) 5 μM CBN pretreatment for 1 h followed by 5 mM glutamate treatment, (FIG. 2F) 5 μM CBN pretreatment for 1 h followed by 50 nM RSL3 treatment. Micrographs show the representative morphological characteristics of the cell cultures under a given condition of 16 experimental replicates. Scale bar=100 μm. (FIG. 2G) Cells were pretreated with varying concentrations of CBN for 1 h followed by 5 mM glutamate treatment and incubation for 16 h. (FIG. 2H) Cells were pretreated with varying concentrations of CBN for 1 h followed by 50 nM RSL3 treatment and incubation for 16 h. The results are presented as the percentage of the neuroprotective activity relative to control (100%) and Glu/RSL3 (0%). The neuroprotection curves were analyzed by four-parameter regression. (FIG. 2I) Cytotoxicity assessment of CBN in HT22 cells. Cells were treated with increasing concentrations of CBN or 0.2% ethanol vehicle and incubated for 16 h. Data are the mean of 8-16 replicates per condition±SD."}}, "note": "Where two headings read alike, the source gives them in different places."}
{"compound": "CCCCCc1cc(O)c2c(c1)OC(C)(C)c1ccc(C)cc1-2", "note": "[CBN, 6,6,9-Trimethyl-3-pentyl-benzo[c]chromen-1-ol]", "values": [{"measurement": "total GSH levels", "setting": "[1]", "value": "no impact"}, {"measurement": "RSL3-induced morphological changes", "setting": "[2]; 5 μM pretreatment 1 hr, then 50 nM RSL3 16 hr", "value": "effectively prevented"}, {"measurement": "neuroprotection against 50 nM RSL3", "setting": "[2]; HT22 cells, CBN 10 μM, data not shown", "value": "~100", "unit": "%"}, {"measurement": "EC50", "setting": "[2]; HT22 cells, 1 hr pretreatment, 50 nM RSL3, 16 hr, read-out: Observed EC50 RSL3", "value": 390, "unit": "nM"}, {"measurement": "EC50", "setting": "[2]; HT22 cells, 16 hr, read-out: EC50 against oxytosis/ferroptosis induced by 50 nM RSL3 (FIG. 2H)", "value": 690, "unit": "nM"}, {"measurement": "DRP1 and MFF levels, co-treatment with RSL3", "setting": "[3]", "value": "restored DRP1 levels but not MFF levels"}, {"measurement": "MFF and DRP1 expression, compound alone", "setting": "[3]", "value": "significantly enhanced the expression of MFF but not DRP1"}, {"measurement": "OPA1 and MFN2 expression, co-treatment with RSL3", "setting": "[3]", "value": "enhanced the expression of OPA1 but not MFN2"}, {"measurement": "PGC-1α and TFAM levels, compound alone", "setting": "[3]", "value": "no apparent effects"}, {"measurement": "RSL3-induced decrease of SIRT1, pAMPK/AMPK, PGC-1α, NRF1, TFAM", "setting": "[3]", "value": "prevented"}, {"measurement": "protein expression of OXPHOS complexes I, II, III and V, compound alone", "setting": "[3]", "value": "did not exert obvious effects"}, {"measurement": "protein expression of SIRT1, pAMPK(Thr172)/AMPK and NRF1, compound alone", "setting": "[3]", "value": "upregulated"}, {"measurement": "RSL3-induced upregulation of OXPHOS complexes", "setting": "[3]; 50 nM RSL3", "value": "inhibited"}, {"measurement": "effect on ATF4 with RSL3", "setting": "[3]; 5 μM CBN, 50 nM RSL3", "value": "not significant"}, {"measurement": "protein levels of Nrf2, HO-1, SOD2 and GPX4 with RSL3", "setting": "[3]; 5 μM CBN, 50 nM RSL3", "value": "at levels similar to the control cells"}, {"measurement": "protein levels of Nrf2, HO-1, SOD2 and GPX4, compound alone", "setting": "[3]; 5 μM, 16 h", "value": "upregulation"}, {"measurement": "MCU expression, compound alone", "setting": "[3]; 5 μM, 16 hr", "value": "reduced basal MCU expression"}, {"measurement": "RSL3-induced HSP60 upregulation", "setting": "[3]; 16 h", "value": "suppressed"}, {"measurement": "VDAC level, compound alone", "setting": "[3]; 16 h", "value": "upregulated"}, {"measurement": "OPA1 and MFN2 levels, compound alone", "setting": "[3]; 16 hr", "value": "upregulated"}, {"measurement": "RSL3-induced MCU upregulation", "setting": "[3]; p<0.0001", "value": "prevented this increase"}, {"measurement": "RSL3-induced VDAC decrease", "setting": "[3]; p<0.0001", "value": "prevented"}, {"measurement": "protein level of OXPHOS complex IV, compound alone", "setting": "[3]; p<0.0001", "value": "reduced"}, {"measurement": "bioavailability", "setting": "[4]; after oral or inhaled administration", "value": "10 to 40", "unit": "%"}, {"measurement": "brain penetrance", "setting": "[4]; animals and humans", "value": "good brain penetrance"}, {"measurement": "metabolic stability compared to THC", "setting": "[4]; human, in vivo", "value": "metabolically more stable"}, {"measurement": "cellular morphology, compound alone", "setting": "[5]; 5 μM, 16 hr, microscopic imaging", "value": "did not induce visual changes in cellular morphology"}, {"measurement": "concentrations at which cytotoxicity was noted", "setting": "[5]; HT22 cells, 16 h", "value": "≥ 500", "unit": "µM"}, {"measurement": "dose up to which no apparent cytotoxicity was observed", "setting": "[5]; HT22 cells, 16 h", "value": "≤ 200", "unit": "µM"}]}
